Laboratory results published in patent US20090023681A1, “METHOD OF USING BETA-GLUCAN FROM SCHIZOPHYLLUM COMMUNE” (priority 2007, published 2009).

Assays:
[1] = system: Staphylococcus aureus; experiment: Bacterial inhibition in mouse model, survival after S. aureus septic shock; type: in vivo, mice; settings: 1 mg/mouse peritoneally 3 days and 1 day prior, 1×10^9 S. aureus intravenously, FIG. 6
Method: Skin is directly vulnerable to or may suffer from single infection with various bacteria and about 90% of atopic patients suffer from secondary infections with bacteria such as Staphylococcus spp. Therefore, there is a need for bacterial inhibition and amelioration of infectious diseases. Prior to the test of skin itching due to bacterial infections, this experiment was carried out to test whether beta-glucan has direct synergistic effects on antibacterial activity and antibiotic activity in vivo, using a mouse model.
Erythromycin was used as an antibiotic and Staphylococcus aureus, one of staphylococci as a major cause of skin infections, was used as the test bacteria. Each experimental group was composed of 6 to 7 mice per group. Experiments were carried out as follows.
1) 3 days and I day prior to bacterial challenge, 1 mg/mouse of saline, antibiotic, beta-glucan, or a beta-glucan/antibiotic mixture was peritoneally injected into mice.
2) 30 min prior to bacterial administration, 18 mg/kg of the antibiotic was subcutaneously injected into the mice.
3) Then, 1×10^9 of bacteria (S. aureus) were intravenously injected to induce septic shock.
4) Finally, a survival rate (%) of the animals was periodically confirmed every 12 hours.

[2] = system: human skin cells; experiment: Synthesis of filaggrin by skin cells, Western blotting; type: cell-based; settings: beta-glucan 0.01%, 2 days treatment, FIG. 4
Method: In order to examine production of a natural moisturizing factor (NMF) having an important effect on skin moisturization, synthesis of filaggrin, which is a precursor of the natural moisturizing factor, was tested on human skin cells. First, skin cells were introduced into a culture flask and allowed to adhere to the bottom of the flask. Then, cells were cultured for 2 days by co-addition of 35-S-methionine upon treatment of a test material. After the cultivation was complete, the culture medium was removed and the cells were dissolved in phosphate buffered saline (PBS) containing 2% sodium dodecyl sulfate and 20 mM dithiothreitol (DTT). After the skin cells were cultured, treatment of the cells with the test material was carried out for 2 days. After the test material treatment was complete, the medium was removed, and only the cells were taken and disrupted using an ultrasonic disintegrator to thereby obtain only a protein. Using the thus-obtained protein, an amount of synthesized filaggrin was determined by Western blotting analysis. FIG. 4 is a graph showing an expression amount of filaggrin by Western blotting analysis. Clofibrate was used as a positive control, and beta-glucan was added to a concentration of 0.01% for the test.

[3] = system: hairless mice; experiment: Skin moisture loss (TEWL) recovery after acetone-induced skin barrier damage; type: in vivo
Method: This experiment was carried out to evaluate effects of beta-glucan on recovery of a skin barrier function loss due to long-term skin damage.
A barrier function of dorsal skin of experimental animals was damaged by periodic application of acetone to the dorsal parts of young hairless mice (10 weeks old) for 3 consecutive days three times a day. Trans-epidermal water loss (TEWL) was measured in the experimental animals. For only the mice having skin with more than 40 g/m′/hr of TEWL, a vehicle (propylene glycol:water=5:5) and a sample containing 0.2% beta-glucan of Example 1 were applied at a dose of 200 μl per 5 cm^2 of a skin area for 3 consecutive days three times a day, and TEWL was measured periodically.

[4] = at 48 hours after the bacterial infection
[5] = one week after the bacterial infection

Compound	survival rate [1, 4]	survival rate [1, 5]	synthesis of filaggrin in skin cells [2]	recovery from skin barrier damage compared to vehicle group ([3]; 0.2% beta-glucan of Example 1, 200 μl per 5 cm^2, 3 days three times a day, FIG. 5)	recovery of the trans-epidermal water loss ([3]; after 10 hours, 0.2% beta-glucan of Example 1 topical) [%]
CC[C@H]1OC(=O)[C@H](C)[C@@H](O[C@H]2C[C@@](C)(OC)[C@@H](O)[C@H](C)O2)[C@H](C)[C@@H](O[C@@H]2O[C@H](C)C[C@H](N(C)C)[C@H]2O)[C@](C)(O)C[C@@H](C)C(=O)[C@H](C)[C@@H](O)[C@]1(C)O [antibiotic, Erythromycin, reference compound]	all killed	all dead			
beta-1,6-branched-beta-1,3-glucan [beta-glucan]	40%	all dead	significantly increased	rapid recovery	≥ 50
